Measurements reported in patent US20250228858A1, “ANTI-CANCER COMBINATION THERAPY” (Boehringer Ingelheim International GmbH, priority 2023, published 2025).

System: HER2-overexpressing human breast cancer cell line BT-474
Type: in vivo
Conditions: alone or combined
Experimental: The study is performed in human breast cancer cell line BT-474 grown as orthotopic xenografts in NMRI-Foxn1^nu mice. Day 1 was the first day, day 42 the last day of treatment and final day of analysis.
BT-474 is a HER2-overexpressing human breast cancer cell line that can be obtained from ATCC (lot #61136823). Cells are cultured in T75, T175 and 5-Layer tissue culture flasks at 37° C. and 5% CO2. The medium used is Hybri-Care (ATCC, 46-X) supplemented with 1.5 g/L sodium bicarbonate (GIBCO, Ref.: 25080-060) and 10% FCS (Cytiva HyClone Characterized FBS, SH30084.03n). Cultures are split twice weekly with a ratio of 1:2-1:3.
To establish subcutaneous tumors, BT-474 cells are harvested by centrifugation, washed and resuspended in PBS+5% FCS at 5×10^7 cells/ml. […] cell suspension containing 5×10^6 cells is injected orthotopically into the right mammary fat pad of isoflurane anesthetized mice (1 site per mouse).
Pertuzumab can be purchased from Roche Pharma AG. Pertuzumab is diluted with saline (0.9%) and administered intraperitoneally with a volume of 10 ml/kg.
Mice in the control group are treated with vehicle, i.e.: • (i) 0.5% Natrosol, administered once daily for the duration of the treatment intragastrally by gavage needle with a volume of 10 ml/kg body weight; and • (ii) saline (0.9%), administered once every 3 weeks intravenously into the tail vein with a volume of 5 ml/kg; and • (iii) saline (0.9%), administered once every week intraperitoneally with a volume of 10 ml/kg.
Tumor volumes and side effects are monitored as described in Example 1 (see paragraph 1.1.6), except that control animals are sacrificed when the median tumor volume of the group reaches a size of approximately 470 mm^3.
The statistical evaluation of the tumor volume and the body weight is conducted on day 42 (last day of the study). Apart from this, statistical analysis was performed as described in Example 1 (see paragraph 1.1.7), with no evaluation of tumor growth after stop of treatment.

**Q.** `C=CC(=O)NC1CCN(c2ncc3ncnc(Nc4ccc(Oc5ccc6c(c5)ncn6C)c(C)c4)c3n2)CC1` [Zongertinib, N-{1-[8-({3-methyl-4-[(1-methyl-1H-1,3-benzodiazol-5-yl)oxy]phenyl}amino)-[1,3]diazino [5,4-d]pyrimidin-2-yl]piperidin-4-yl}prop-2-enamide] was tested. Which “Regressions >30%” value (day 42, tumors regressed/total (partial response), zongertinib 10 mg/kg qdx42 p.o., T-DXd 1 mg/kg q21dx2 i.v., pertuzumab 20 mg/kg q7dx6 i.p.) did it give?
**A.** 0/8

**Q.** What about the “stable disease (tumors remained stable)” value (day 42, zongertinib 10 mg/kg qdx42, T-DXd 1 mg/kg q21dx2) of the same compound?
**A.** 2 out of 8

**Q.** What about the TGI (day 42, zongertinib 10 mg/kg qdx42 p.o., T-DXd 1 mg/kg q21dx2 i.v., pertuzumab 20 mg/kg q7dx6 i.p.) of the same compound?
**A.** 70%

**Q.** What about the “effect on tumor growth (median tumor volumes over time)” value (zongertinib 10 mg/kg qdx42, T-DXd 1 mg/kg q21dx2, pertuzumab 20 mg/kg q7dx6) of the same compound?
**A.** delayed tumor growth, but median tumor volumes increased in the course of the experiment
